Reference: ChEMBL document CHEMBL5321246, “Aurones: A Promising Scaffold to Inhibit SARS-CoV-2 Replication” (J Nat Prod, 2023)

Test system: not listed separately
Assay: Cytotoxicity against human Calu-3 cells assessed as cell viability at 250 uM incubated for 72 hrs by methylene blue assay relative to control
Type: toxicity, cell-based
Conditions: read-out: Activity

| Compound | viability at 72 h, 250 µM [%] |
| --- | --- |
| COc1ccc(/C=C2\Oc3cc(O)cc(O)c3C2=O)cc1 | ≥ 80 |
| O=C1/C(=C/c2ccc3c(c2)OCO3)Oc2ccccc21 | ≥ 80 |
| COCOc1ccc2c(c1OCOC)O/C(=C\c1ccc(OC)cc1)C2=O | ≥ 80 |
| COCOc1cc(OCOC)c2c(c1)O/C(=C\c1ccc(OC)cc1)C2=O | ≥ 80 |
| COc1cccc2c1C(=O)/C(=C/c1ccccc1)O2 | ≥ 80 |
| O=C1/C(=C/c2ccc(Cl)cc2)Oc2ccccc21 | ≥ 80 |
| COc1ccc(/C=C2\Oc3ccccc3C2=O)cc1 [4'-METHOXY-AURONE] | ≥ 80 |
| O=C1/C(=C/c2ccccc2)Oc2ccccc21 [(Z)-AURONE] | ≥ 80 |

Test system: not listed separately
Assay: Cytotoxicity against African green monkey Vero E6 cells assessed as reduction in cell viability by CCK8 assay
Type: toxicity, cell-based, Vero C1008
Conditions: chlorocebus sabaeus

| Compound | CC50 [nM] |
| --- | --- |
| O=c1cc(-c2ccccc2)oc2cc(O)c(O)c(O)c12 [BAICALEIN] | > 200000 |

Test system: SARS-CoV-2
Assay: Antiviral activity against SARS-CoV-2 B.1 lineage isolate infected in human Calu-3 cells assessed as inhibition of viral replication at 1 uM infected with cells for 1 hr followed by compound addition and measured 24 hrs post infection by crystal violet staining based PFU assay relative to control
Type: functional
Conditions: Severe acute respiratory syndrome coronavirus 2, B.1, Calu-3

| Compound | inhibition at 1 µM [%] |
| --- | --- |
| O=C1/C(=C/c2ccc3c(c2)OCO3)Oc2ccccc21 | 69.5 |
| COCOc1ccc2c(c1OCOC)O/C(=C\c1ccc(OC)cc1)C2=O | < 1 |
| COCOc1cc(OCOC)c2c(c1)O/C(=C\c1ccc(OC)cc1)C2=O | < 1 |
| COc1cccc2c1C(=O)/C(=C/c1ccccc1)O2 | < 1 |
| COc1ccc(/C=C2\Oc3ccccc3C2=O)cc1 [4'-METHOXY-AURONE] | 29.2 |
| O=C1/C(=C/c2ccccc2)Oc2ccccc21 [(Z)-AURONE] | < 1 |

Test system: SARS-CoV-2
Assay: Antiviral activity against SARS-CoV-2 infected in human Calu-3 cells
Type: functional, organism-based
Conditions: Severe acute respiratory syndrome coronavirus 2, Calu-3

| Compound | EC50 [nM] |
| --- | --- |
| O=c1cc(-c2ccccc2)oc2cc(O)c(O)c(O)c12 [BAICALEIN] | 1200 |

Test system: SARS-CoV-2
Assay: Antiviral activity against SARS-CoV-2 in presence of lopinavir
Type: functional, organism-based
Conditions: Severe acute respiratory syndrome coronavirus 2

| Compound | EC50 [nM] |
| --- | --- |
| CC(C)c1nc(CN(C)C(=O)N[C@H](C(=O)N[C@@H](Cc2ccccc2)C[C@H](O)[C@H](Cc2ccccc2)NC(=O)OCc2cncs2)C(C)C)cs1 [RITONAVIR] | 5000 |

Test system: SARS-CoV-2
Assay: Antiviral activity against SARS-CoV-2
Type: functional, organism-based
Conditions: Severe acute respiratory syndrome coronavirus 2

| Compound | EC50 [nM] |
| --- | --- |
| CCC(CC)COC(=O)[C@H](C)N[P@](=O)(OC[C@H]1O[C@@](C#N)(c2ccc3c(N)ncnn23)[C@H](O)[C@@H]1O)Oc1ccccc1 | 2500 |
| CC(C)C(=O)OC[C@H]1O[C@@H](n2cc/c(=N\O)[nH]c2=O)[C@H](O)[C@@H]1O [MOLNUPIRAVIR] | 2000 |

Test system: SARS-CoV-2
Assay: Antiviral activity against SARS-CoV-2 B.1 lineage infected in human Calu-3 cells assessed as inhibition of viral replication
Type: functional, organism-based
Conditions: Severe acute respiratory syndrome coronavirus 2, B.1, Calu-3

| Compound | EC50 [nM] |
| --- | --- |
| O=c1cc(-c2ccc(O)cc2)oc2cc(O)cc(O)c12 [APIGENIN] | 5100 |
| O=c1c(O)c(-c2ccc(O)cc2)oc2cc(O)cc(O)c12 [KAEMPFEROL] | 3000 |
| O=c1c(O)c(-c2cc(O)c(O)c(O)c2)oc2cc(O)cc(O)c12 [MYRICETIN] | 900 |
| O=c1c(O)c(-c2ccc(O)c(O)c2)oc2cc(O)cc(O)c12 [QUERCETIN] | 2400 |

Test system: SARS-CoV-2
Assay: Antiviral activity against SARS-CoV-2 B.1 lineage isolate infected in human Calu-3 cells assessed as inhibition of viral replication at 10 uM infected with cells for 1 hr followed by compound addition and measured 24 hrs post infection by crystal violet staining based PFU assay relative to control
Type: functional
Conditions: Severe acute respiratory syndrome coronavirus 2, B.1, Calu-3

| Compound | inhibition at 10 µM [%] |
| --- | --- |
| COc1ccc(/C=C2\Oc3cc(O)cc(O)c3C2=O)cc1 | 68.4 |
| O=C1/C(=C/c2ccc3c(c2)OCO3)Oc2ccccc21 | 44.6 |
| COCOc1ccc2c(c1OCOC)O/C(=C\c1ccc(OC)cc1)C2=O | 58.2 |
| COCOc1cc(OCOC)c2c(c1)O/C(=C\c1ccc(OC)cc1)C2=O | 95.2 |
| COc1cccc2c1C(=O)/C(=C/c1ccccc1)O2 | 90.9 |
| O=C1/C(=C/c2ccc(Cl)cc2)Oc2ccccc21 | 68.8 |
| COc1ccc(/C=C2\Oc3ccccc3C2=O)cc1 [4'-METHOXY-AURONE] | 66.9 |
| O=C1/C(=C/c2ccccc2)Oc2ccccc21 [(Z)-AURONE] | 81.2 |

Test system: SARS-CoV-2
Assay: Antiviral activity against SARS-CoV-2 infected in human Calu-3 cells assessed as inhibition of viral replication incubated for 48 hrs by PFU assay
Type: functional, organism-based
Conditions: Severe acute respiratory syndrome coronavirus 2, Calu-3, 48 h

| Compound | EC50 [nM] |
| --- | --- |
| COc1cc(O)c2c(=O)c(OC)c(-c3ccc(O)cc3)oc2c1 [KUMATAKENIN] | 300 |
| COc1cc(O)c2c(=O)c(OC)c(-c3ccc(OC)c(OC)c3)oc2c1 [RETUSIN] | 600 |
